We go through four compounds from patent US6861544B1, “Fluorous tin compounds an methods of using fluorous tin compounds” (University of Pittsburgh, priority 2000, dated 2005).

SMILES strings stand for the structures.

The nature of data set [1]: Partition coefficient of fluorous tin hydrides, FC-72/benzene (GC). Type of data set: physicochemical. The conditions noted are these: FC-72 (1 mL) / benzene (1 mL), stirred 10 min, GC relative peak area, n-octadecane internal standard. The protocol: (§1) Measurement of the Partition Coefficient of Fluorous Tin hyrides 4a-c. Fluorous tin hydrides (2-12 mg) were stirred with FC-72 (1 mL) and benzene (1 mL) or acetonitrile (1 mL) for 10 min. After separation, n-octadecane was added to both phases as an internal standard (for FC-72 phase, the solvent was evaporated and ethyl acetate (1 mL) was added to dissolve both the tin hydride and n-ocadecane). An aliquot (10 uL) of each phase was injected to GC for three times and the relative peak area was used to calculate the following partition coefficients of tin hydrides: FC-72/CH3CN, 4a, 2.4; 4b, 14; 4c, 48; FC-72/benzene, 4a, 0.7; 4b, 2.5; 4c, 4.7.

The nature of data set [2]: Partition coefficient of fluorous tin hydrides, FC-72/CH3CN (GC). Type of data set: physicochemical. The conditions noted are these: FC-72 (1 mL) / acetonitrile (1 mL), stirred 10 min, GC relative peak area, n-octadecane internal standard. The protocol: as §1
The conditions of data set [3]: conditions of the reduction of FIG. 4.

`[CH3][SnH]([CH3])[CH2]CC(F)(F)C(F)(F)C(F)(F)C(F)(F)C(F)(F)C(F)(F)F` [4a, Dimethyl-(3,3,4,4,5,5,6,6,7,7,8,8,8-tridecafluorooctyl)stannane]: the “partition coefficient FC-72/benzene” value in data set [1] is 0.7. Also, in data set [2], the “partition coefficient FC-72/CH3CN” value amounted to 2.4.
On to `[CH3][SnH]([CH3])[CH2]CC(F)(F)C(F)(F)C(F)(F)C(F)(F)C(F)(F)C(F)(F)C(F)(F)C(F)(F)C(F)(F)C(F)(F)F` [4c, Dimethyl-(3,3,4,4,5,5,6,6,7,7,8,8,9,9,10,10,11,11,12,12,12-heneicosafluorododecyl)stannane], for which the “partition coefficient FC-72/benzene” value in data set [1] is 4.7. Besides, in data set [2], the “partition coefficient FC-72/CH3CN” value is reported as 48.
The matching figures for `[CH3][SnH]([CH3])[CH2]CC(F)(F)C(F)(F)C(F)(F)C(F)(F)C(F)(F)C(F)(F)C(F)(F)C(F)(F)F` [4b, Dimethyl-(3,3,4,4,5,5,6,6,7,7,8,8,9,9,10,10,10-heptadecafluorodecyl)stannane]: 2.5 and 14.
With `FC(F)(F)C(F)(F)C(F)(F)C(F)(F)C(F)(F)C(F)(F)C[CH2][SnH]([CH2]CC(F)(F)C(F)(F)C(F)(F)C(F)(F)C(F)(F)C(F)(F)F)[CH2]CC(F)(F)C(F)(F)C(F)(F)C(F)(F)C(F)(F)C(F)(F)F` [(C6F13CH2CH2)3SnH], the solubility in t-butanol entry in data set [3] is on record as “insoluble or nearly insoluble”.
